Each structure is given as a SMILES string. Values after ≈ are worked out from the molar mass of the structure shown. Bridge positions count the residues as written; N and C are the ends. Square brackets hold non-standard residues; d marks the D form. Peptide text beside a SMILES is read from it. R5 = C=CCCC[C@@](C)(N)C(=O)O

These results are taken from publication PMC10101059, “Rational Design of Stapled Antimicrobial Peptides to Enhance Stability and In Vivo Potency against Polymicrobial Sepsis” (Microbiology Spectrum, 2023).

The test system of one data set is Salmonella enterica. Nature of the data set: microbe, parasite or virus in culture. Type of data set: cell-based. The settings on record: Salmonella enterica; MHB medium. The procedure, abridged: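 Broth microdilution per modified NCCLS protocol: 5 × 10^5 CFU/mL bacteria exposed to serial peptide concentrations, 37 ± 2°C for 16 to 20 h. MIC = lowest concentration giving clear wells; clear wells plated on Mueller-Hinton agar overnight at 37 ± 2°C, MBC = lowest concentration with no growth. Serum sensitivity tested in medium with 50% human serum.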

Data set [1] relates to A. baumannii. Nature of the data set: DiBAC4(3) membrane depolarization assay. Type of data set: cell-based, Acinetobacter baumannii. The conditions noted are these: compared to the blank control. How it is done:
Mid-log-phase A. baumannii bacterial cells were suspended in 10 mM PBS (pH 7.4) at a density of 10^8 CFU/mL. The cell suspension was then supplemented with 25 mM glucose, followed by 15 min incubation at 37°C. Then, the cell suspension was mixed with 500 nM DiBAC4(3) and incubated for 50 min. After incubation, 90 μL of the cell suspension was transferred to a 96-well plate, and fluorescence was recorded (excitation/emission: 480/520 nm) until the signal stabilized (~40 min). […] Data for blank- and compound-treated groups were compared by plotting fluorescence as function of time ([56]).

Data set [2] concerns human keratinocyte (HaCaT). The data set is described as follows: alamarBlue cytotoxicity assay. Type of data set: cell-based. The settings on record: at 3.13 μM, 24 h. How it is done: (§1) (i) Cell culture. Human skin keratinocytes (HaCaT), human kidney (HK-2), and RAW 264.7 macrophage cells were obtained from the Bioresource Collection and Research Center (BCRC, Hsinchu, Taiwan). HaCaT and […] macrophage cells were cultured in Dulbecco’s modified Eagle’s medium (DMEM, Thermo Fischer, MA, USA.) supplemented with 10% FBS, penicillin (100 U/mL), and streptomycin (100 μg/mL) at 37°C under 5% CO2. HK-2 cells were cultured in glucose-free Keratinocyte serum-free medium (K-SFM) supplemented with 0.05 mg/mL bovine pituitary extract (BPE), 5 ng/mL EGF, 100 U/mL penicillin, and […] streptomycin at 37°C in 5% CO2 ([49]).
(§2) In vitro toxicity assay. The cytotoxicity of TP4-3 was evaluated by an alamarBlue assay. HaCaT, HK-2, and RAW 264.7 macrophage cells were seeded at densities of 1 × 10^4 cells/well in 96-well cell plates and treated with the indicated concentrations of TP4 and TP4-3 for 24 h (0.78 to 100 μM). Cells treated with 0.1% Triton X-100 and culture medium served as negative and positive-control groups, respectively. After incubation, the cells were washed and incubated for 2 h at 37°C with 90 μL Dulbecco’s modified Eagle medium (DMEM) containing 10 μL alamarBlue reagent. Fluorescence was recorded using a Spectra Max i3 Multi-Mode detection platform (Molecular Devices, San Jose, CA) to measure cell viability ([50], [51]).

For the next data set, the system named is human kidney cell (HK-2). Nature of the data set: alamarBlue cytotoxicity assay. Type of data set: cell-based. The conditions noted are these: at 3.13 μM, 24 h. How it is done: as §1, §2
On the technique in general: Alamar Blue is a resazurin reagent that responds to reducing activity.

For data set [3], the system named is murine macrophage (RAW 264.7). The data set is described as follows: alamarBlue cytotoxicity assay. In kind it is cell-based. The conditions noted are these: at 12.5 μM, 24 h. How it is done:
as §1, §2

Data set [4] has as its system A. baumannii. Nature of the data set: NPN membrane permeabilization assay. Type of data set: cell-based, Acinetobacter baumannii. The settings on record: 25 μM, 10^8 CFU/mL. How it is done:
Mid-log-phase bacterial cells (A. baumannii) were resuspended in 10 mM PBS (pH 7.4) to a density of 10^8 CFU/mL. The cell suspension was supplemented with 25 mM glucose followed by 15 min incubation at 37°C. After the incubation, N-phenyl-1-naphthylamine dye was added to a final concentration of 10 μM. Next, 90 μL of bacterial cells was transferred to a 96-well black plate, and fluorescence was recorded for 40 min (excitation/emission: 350/420 nm). […] After this treatment, fluorescence was recorded for an additional 20 min ([53]). Data are presented as fluorescence values as a function of time. Permeabilization of blank- and test compound-treated cells was compared. For the PI membrane permeabilization assay, 10^8 bacterial cells (A. baumannii) were resuspended in MHB containing 20 μg/mL PI. […] Fluorescence was read (excitation/emission: 584/620 nm). Fluorescence values of blank- and compound-treated cells were graphed as a function of time ([54], [55]).

In the next data set the test system is female C57BL/6 mice. Nature of the data set: In vivo toxicity. How it is done: The in vivo toxicity of TP4-3 was assessed in female C57BL/6 mice (BioLasco, Ilan, Taiwan) upon intravenous administration of TP4-3 (9, 45, and 60 mg/kg). […] All animals were monitored for 7 days. The number of dead animals and animal body weights were measured every 24 h. Seven days after the drug administration, blood samples were collected, and the animals were euthanized. ALT (GPT), AST (GOT), CRE, and BUN were analyzed using a dry-chemistry analyzer (Fujifilm DRI-CHEM 4000i) and commercially available kits (Fujifilm Corp., Tokyo, Japan) ([23], [54]). All animal experiments were approved by the institutional ethical committee (IACUC, Academia Sinica; ID no. 2021-12-1577 and 2021-12-1771).

In the data set with Salmonella enterica, `C[C@@H](O)[C@H]1C(=O)N2C(C(=O)O)=C(S[C@@H]3CN[C@H](C(=O)N(C)C)C3)[C@H](C)[C@H]12` [Meropenem] gave an MBC of 6.25 µM (≈ 2.4 µg/mL) and an MIC of 3.13 to 6.25 µM (≈ 1.2 to 2.4 µg/mL).
Turning to `CC[C@H](C)[C@H](NC(=O)[C@@H](NC(=O)[C@@H](N)Cc1ccccc1)[C@@H](C)CC)C(=O)N[C@]1(C)CCCC=CCCC[C@](C)(C(=O)NCC(=O)N[C@@H](CC(C)C)C(=O)N[C@@H](Cc2ccccc2)C(=O)N[C@@H](CCCCN)C(=O)N[C@@H](CCCCN)C(=O)N[C@@H](CCCCN)C(=O)N[C@@H](C)C(=O)NCC(=O)N[C@@H](C)C(=O)N[C@]2(C)CCCC=CCCC[C@](C)(C(=O)N[C@H](C(=O)N[C@@H](CCCCN)C(=O)N[C@@H](CCCCN)C(=O)O)[C@@H](C)CC)NC(=O)[C@H](CCCCN)NC(=O)[C@H](CCCCN)NC(=O)[C@H](CCCCN)NC2=O)NC(=O)[C@H](CO)NC(=O)[C@H](CCCCN)NC(=O)[C@H](CCCCN)NC1=O` [TP4-3] (H-FII[R5]KKS[R5]GLFKKKAGA[R5]KKK[R5]IKK-OH; staple 4-8, 18-22; N-terminus and C-terminus assumed), the “DiBAC4(3) fluorescence signal (membrane depolarization)” value in the data set with A. baumannii [1] is “substantial rise in the fluorescence signal”. Moreover, the cell death (in data set [2]; in the data set on human kidney cell (HK-2); in data set [3]) was < 10% in each case. For the same compound, the “NPN fluorescence signal vs controls” value in the data set with A. baumannii [4] is listed as ~4 fold. Moreover, the “time to death after treatment” value in the data set on female C57BL/6 mice (60 mg/kg i.v.) is recorded as ≤ 10 min. The body weight entry in the data set on female C57BL/6 mice (i.v. 9 or 45 mg/kg, 7 days) is “No significant changes in body weight”. Further, the survival result with female C57BL/6 mice (i.v. doses of 9 or 45 mg/kg, 7 days) is “All treated animals survived”. Further, the “kidney (BUN, CRE) and liver (GOT, GPT) function markers” value in the data set on female C57BL/6 mice (i.v., TP4-3 up to 45 mg/kg, meropenem 10 mg/kg, day 7) is recorded as “no obvious effects”.
